Measured values as given in US20260035387A1 (BIOGEN MA INC., priority 2022, published 2026).

What follows are molecules tested on mutant Huntington (HTT) protein (assay: HTT Mutant HTRF iPSC assay (mHTT protein lowering)). Conditions: human iPSC derived from a HTT patient with a poly-Q49 mutation.
Format: cell-based

SMILES	IC50 [nM]
[2H]C([2H])([2H])N1CCN(c2ccc3cc(C(=O)Nc4cn5cc(C)nc5c(C)n4)sc3n2)CC1 [Compound 195, N-(2,8-dimethylimidazo[1,2-a]pyrazin-6-yl)-6-(4-(methyl-d3)piperazin-1-yl)thieno[2,3-b]pyridine-2-carboxamide]	< 100
CC(=O)N1C[C@@H]2CN(c3ccc4cc(C(=O)Nc5ccc6nc(C)cn6c5)sc4n3)C[C@@H]2C1 [Compound 29, 6-((3aR,6aS)-5-acetylhexahydropyrrolo[3,4-c]pyrrol-2(1H)-yl)-N-(2-methylimidazo[1,2-a]pyridin-6-yl)thieno[2,3-b]pyridine-2-carboxamide]	1000 to 9000
Cc1cn2cc(NC(=O)c3nc4ccc(C5CCCN(C)C5)nc4s3)cc(F)c2n1 (stereo not drawn) [Compound 134, N-(8-fluoro-2-methylimidazo[1,2-a]pyridin-6-yl)-5-(1-methylpiperidin-3-yl)thiazolo[5,4-b]pyridine-2-carboxamide]	< 100
Cc1nc2c(F)cc(NC(=O)c3cc4ccc(N5CCC(N(C)C)C5)nc4s3)cc2o1 (stereo not drawn) [Compound 71, 6-(3-(dimethylamino)pyrrolidin-1-yl)-N-(4-fluoro-2-methylbenzo[d]oxazol-6-yl)thieno[2,3-b]pyridine-2-carboxamide]	< 100
Cc1cn2cc(NC(=O)c3cc4ccc(N5CCNC6(CC6)C5)nc4s3)nc(C)c2n1 [Compound 193, N-(2,8-dimethylimidazo[1,2-a]pyrazin-6-yl)-6-(4,7-diazaspiro[2.5]octan-7-yl)thieno[2,3-b]pyridine-2-carboxamide]	< 100
Cc1cn2cc(NC(=O)c3cc4ccc(N5CC(N(C)C)C6(CC6)C5)nc4s3)nc(C)c2n1 (stereo not drawn) [Compound 211, 6-(7-(dimethylamino)-5-azaspiro[2.4]heptan-5-yl)-N-(2,8-dimethylimidazo[1,2-a]pyrazin-6-yl)thieno[2,3-b]pyridine-2-carboxamide]	< 100
COc1cc2nn(C)cc2cc1NC(=O)c1cc2ccc(C3CCN(C)C3)nc2s1 (single isomer, unassigned) [Compound 177]	< 100
Cc1cn2cc(NC(=O)c3cc4ccc(N5CC[C@@H](N(C)C)C5)nc4s3)nc(C)c2n1 [Compound 51, (R)-6-(3-(dimethylamino)pyrrolidin-1-yl)-N-(2,8-dimethylimidazo[1,2-a]pyrazin-6-yl)thieno[2,3-b]pyridine-2-carboxamide]	< 100
COc1cc2nn(C)cc2cc1NC(=O)c1cc2ccc(N3CC4(CCCN4C)C3)nc2s1 [Compound 236, N-(6-methoxy-2-methyl-2H-indazol-5-yl)-6-(5-methyl-2,5-diazaspiro[3.4]octan-2-yl)thieno[2,3-b]pyridine-2-carboxamide]	< 100
Cc1cn2cc(NC(=O)c3cc4ccc(NC5CC6CCCN6C5)nc4s3)ccc2n1 (stereo not drawn) [Compound 12, 6-((hexahydro-1H-pyrrolizin-2-yl)amino)-N-(2-methylimidazo[1,2-a]pyridin-6-yl)thieno[2,3-b]pyridine-2-carboxamide]	100 to 1000
Cc1cn2cc(NC(=O)c3nc4ccc(N5CCC(N(C)C)C5)nc4s3)ccc2n1 (stereo not drawn) [Compound 9, 5-[3-(dimethylamino)pyrrolidin-1-yl]-N-(2-methylimidazo[1,2-a]pyridin-6-yl)thiazolo[5,4-b]pyridine-2-carboxamide]	1000 to 9000
COc1c(NC(=O)c2cc3ccc(N4CCC5(CCCN5C)C4)nc3s2)cn2cc(C)nc2c1F (single isomer, unassigned) [Compound 239]	< 100
COc1cc2nc(C)cn2cc1NC(=O)c1cc2ccc(N3CC[C@]4(CCCN4C)C3)nc2s1 (single isomer, unassigned) [Compound 251]	100 to 1000
COc1cc2nn(C)cc2cc1NC(=O)c1cc2nc(N3CCC4(CCCN4C)C3)ccc2o1 (stereo not drawn) [Compound 167, N-(6-methoxy-2-methyl-2H-indazol-5-yl)-5-(1-methyl-1,7-diazaspiro[4.4]nonan-7-yl)furo[3,2-b]pyridine-2-carboxamide]	< 100
CN1CCC(c2ccc3nc(C(=O)Nc4cc(F)c5nn(C)cc5c4)sc3n2)CC1 [Compound 246, N-(7-fluoro-2-methyl-2H-indazol-5-yl)-5-(1-methylpiperidin-4-yl)thiazolo[5,4-b]pyridine-2-carboxamide]	100 to 1000
CCNC1CCN(c2ccc3cc(C(=O)Nc4cc5cc(C)nn5cc4OC)sc3n2)C1 (single isomer, unassigned) [Compound 212]	< 100
Cc1cn2cc(NC(=O)c3nc4ccc(N5CCNCC5)nc4s3)cc(F)c2n1 [Compound 102, N-(8-fluoro-2-methylimidazo[1,2-a]pyridin-6-yl)-5-(piperazin-1-yl)thiazolo[5,4-b]pyridine-2-carboxamide]	< 100
Cc1cn2cc(NC(=O)c3nc4ccc(C5=CC6CCC(C5)N6)nc4s3)cc(F)c2n1 (stereo not drawn) [Compound 130, 5-(8-azabicyclo[3.2.1]oct-2-en-3-yl)-N-(8-fluoro-2-methylimidazo[1,2-a]pyridin-6-yl)thiazolo[5,4-b]pyridine-2-carboxamide]	< 100
CCN1Cc2cccc(Nc3ccc4cc(C(=O)Nc5ccc6nc(C)cn6c5)sc4n3)c2C1 [Compound 46, 6-((2-ethylisoindolin-4-yl)amino)-N-(2-methylimidazo[1,2-a]pyridin-6-yl)thieno[2,3-b]pyridine-2-carboxamide]	1000 to 9000
COc1nc(NC(=O)c2cc3ccc(N4CCC(N(C)C)C4)nc3s2)cn2cc(C)nc12 (stereo not drawn) [Compound 191, 6-(3-(dimethylamino)pyrrolidin-1-yl)-N-(8-methoxy-2-methylimidazo[1,2-a]pyrazin-6-yl)thieno[2,3-b]pyridine-2-carboxamide]	< 100
COc1cc2nn(C)cc2cc1NC(=O)c1cc2ccc(N3CC[C@@]4(CCCN4C)C3)nc2s1 (single isomer, unassigned) [Compound 223]	< 100
Cc1cn2cc(NC(=O)c3nc4ccc(C5C[C@@H](C)N[C@@H](C)C5)nc4s3)cc(F)c2n1 (stereo partly drawn) [Compound 139, 5-[(2S,6R)-2,6-dimethyl-4-piperidyl]-N-(8-fluoro-2-methyl-imidazo[1,2-a]pyridin-6-yl)thiazolo[5,4-b]pyridine-2-carboxamide]	< 100
Cc1cn2cc(NC(=O)c3cc4ccc(N5CCC6CNCC65)nc4s3)cc(F)c2n1 (stereo not drawn) [Compound 201, N-(8-fluoro-2-methylimidazo[1,2-a]pyridin-6-yl)-6-(hexahydropyrrolo[3,4-b]pyrrol-1(2H)-yl)thieno[2,3-b]pyridine-2-carboxamide]	< 100
Cc1cn2cc(NC(=O)c3cc4ccc(C5=CC6CCC(C5)N6)nc4s3)cc(F)c2n1 (stereo not drawn) [Compound 83, 6-(8-azabicyclo[3.2.1]oct-2-en-3-yl)-N-(8-fluoro-2-methylimidazo[1,2-a]pyridin-6-yl)thieno[2,3-b]pyridine-2-carboxamide]	< 100
Cc1cn2cc(NC(=O)c3cc4ccc(NC5CN(C)CC5F)nc4s3)nc(C)c2n1 (stereo not drawn) [Compound 214, N-(2,8-dimethylimidazo[1,2-a]pyrazin-6-yl)-6-((4-fluoro-1-methylpyrrolidin-3-yl)amino)thieno[2,3-b]pyridine-2-carboxamide]	< 100
Cc1cn2cc(NC(=O)c3cc4ccc(C5CCN(C)C5)nc4s3)cc(F)c2n1 (single isomer, unassigned) [Compound 181]	< 100
COc1cc2nn(C)cc2cc1NC(=O)c1cc2ccc(C3CCCN(C)C3)nc2s1 (single isomer, unassigned) [Compound 185]	< 100
